Data: patent US20240148686A1, “PHARMACEUTICAL COMPOSITION OF FORSKOLIN-ISOFORSKOLIN AND PENTACYCLIC TRITERPENOID COMPOUND, AND APPLICATION THEREOF” (CHINA PHARMACEUTICAL UNIVERSITY, priority 2021, published 2024)
Marks after values point to notes of the source that are not given here.

Legend:
[1] = system: NAFLD model mice (obesity and fatty liver models induced by a high-fat diet); assay: Therapeutic effects on obesity and fatty liver (NAFLD) models induced by a high-fat diet; assay type: in vivo, C57 mice; conditions: for serum FFA content / serum TC content / hepatic TG content: fatty liver model mice, total 20 mg/kg intragastric once a day for 12 weeks, x±s; for serum FFA content / serum TC content: high-fat diet 12 weeks; for hepatic TG content: liver homogenate supernatant
Experimental: (§1) Notes: Statistical analysis is conducted by the GraphPad Prism 8.0 statistical software, and statistical analysis results are analyzed by t-Test. Compared with a model group, *P<0.05 indicates a statistically-significant difference between the groups: **P<0.01, […], and ****P<0.0001.
160 SPF-grade male C57 mice at 8 weeks to 9 weeks were adaptively raised for one week, and then 140 obese mice with a consistent body weight were selected and evenly divided into 14 groups with 10 mice per group, including a model group (M group), a forskolin group (F group), an isoforskolin group (IF group), an asiatic acid group (AA group), an asiaticoside group (AS group), an OA group (OA group), a betulinic acid group (BA group), a forskolin+asiatic acid combined administration group (F+AA group), a forskolin+asiaticoside combined administration group (F+AS group), forskolin+OA combined administration groups (low, medium, and high) (F+OA-1:4, 1:1, and 4:1 groups), a forskolin+betulinic acid combined administration group (F+BA group), and an isoforskolin+OA combined administration group (IF+OA group). The mice were fed by a high-fat diet (including 35% of fat, 26% of carbohydrates, and 26% of proteins) continuously for 12 weeks to establish obesity and fatty liver models, and during the modeling, a drug was intragastrically administered continuously for 12 weeks. The experimental animals were raised in ordinary mouse cages in an environment with a room temperature of 24±2° C., a humidity of 40% to 60%, and a 12 h light/12 h dark cycle.
Administration mode: A drug was prepared with a 0.5% CMC-Na solution as a solvent into a suspension, and the suspension was intragastrically administered once a day continuously for 12 weeks.
The mice were administered with a drug continuously for 12 weeks, and after the last administration, the mice were fasted without water deprivation for 12 h; a body weight of each mouse was measured, eyeballs were removed, blood was collected, and a liver was taken out and weighed; a part of the liver tissue was stored in 4% paraformaldehyde (PFA), and another part of the liver tissue was stored in liquid nitrogen; and inguinal fat was collected from a right thigh of each mouse, weighed, and stored in liquid nitrogen.
A blood sample was allowed to stand in a 4° C. refrigerator for 4 h and then centrifuged at 3,500 rpm for 10 min to 15 min; and a resulting supernatant was collected and tested by a blood bio-chemical analyzer to determine the FFA and TC levels in serum. The liver tissue stored in 4% PFA was frozen and sectioned, and then stained with oil red O to obtain slide specimens. The liver tissue stored in liquid nitrogen was homogenized and then centrifuged, and a resulting supernatant was collected and then tested by a kit to determine a TG content.

[2] = system: chronic liver fibrosis model mice induced by CCl4; assay: Therapeutic effects on chronic liver fibrosis model induced by CCl4; assay type: in vivo, C57BL/6 mice; conditions: total 20 mg/kg intragastric once a day for 8 weeks, x±s
Experimental: as §1
140 C57 mice were selected and evenly divided into 14 groups with 10 mice per group, including a model group (M group), a forskolin group (F group), an isoforskolin group (IF group), an asiatic acid group (AA group), an asiaticoside group (AS group), an OA group (OA group), a betulinic acid group (BA group), a forskolin+asiatic acid combined administration group (F+AA group), a forskolin+asiaticoside combined administration group (F+AS group), forskolin+OA combined administration groups (low, medium, and high) (F+OA-1:4, 1:1, and 4:1 groups), a forskolin+betulinic acid combined administration group (F+BA group), and an isoforskolin+OA combined administration group (IF+OA group). Every Thursday and Sunday, all mice each were intraperitoneally injected with a 5% carbon tetrachloride (CCl4)-containing olive oil solution continuously for 8 weeks at an injection volume of 20 mL/kg to obtain a liver fibrosis model caused by chronic liver damage.
Administration mode: A drug was prepared with a 0.5% CMC-Na solution as a solvent into a suspension, and the suspension was intragastrically administered once a day continuously for 8 weeks.
The mice were administered with a drug continuously for 8 weeks, and after the last administration, the mice were fasted without water deprivation for 12 h; a body weight of each mouse was measured, eyeballs were removed, blood was collected, and a liver was taken out and weighed; and a part of the liver tissue was stored in 4% PFA, and another part of the liver tissue was stored in liquid nitrogen.
A blood sample was allowed to stand in a 4° C. refrigerator for 4 h and then centrifuged at 3,500 rpm for 10 min to 15 min; and a resulting supernatant was collected and tested by a kit to determine AST and ALT levels. The liver tissue stored in liquid nitrogen was homogenized and then centrifuged, and a resulting supernatant was collected and then tested by an enzyme-linked immunosorbent assay (ELISA) kit to determine a PCIII content. The liver tissue stored in 4% PFA was dehydrated, fixed, sectioned, and stained to obtain H&E-stained and Sirius red-stained slide specimens.

Molecule	body weight increase (FIG. 1), in words ([1]; NAFLD model mice, total 20 mg/kg intragastric daily, 12 weeks)	serum FFA content [1]	serum TC content [1]	hepatic TG content [1]	serum ALT content [2]	serum AST content [2]
Forskolin	can inhibit the increase of a body weight of mice similarly	1.324 ± 0.124 mmol/L	7.44 ± 0.86 mmol/L	1.01 ± 0.07* mmol/L	922 ± 32 U/L	447 ± 31 U/L
Asiaticoside	–	1.238 ± 0.186* mmol/L	7.09 ± 0.34 mmol/L	1.18 ± 0.08 mmol/L	882 ± 25 U/L	406 ± 63* U/L
CC1(C)CC[C@]2(C(=O)O)CC[C@]3(C)C(=CC[C@@H]4[C@@]5(C)CC[C@H](O)C(C)(C)[C@@H]5CC[C@]43C)[C@@H]2C1 [OA, Oleanolic acid]	–	1.182 ± 0.113* mmol/L	6.84 ± 0.54* mmol/L	1.03 ± 0.09* mmol/L	888 ± 53 U/L	436 ± 51 U/L
C[C@H]1[C@H](C)CC[C@]2(C(=O)O)CC[C@]3(C)C(=CC[C@@H]4[C@@]5(C)C[C@@H](O)[C@H](O)[C@@](C)(CO)[C@@H]5CC[C@]43C)[C@H]12 [AA, Asiatic acid]	–	1.286 ± 0.143 mmol/L	7.26 ± 0.74 mmol/L	1.17 ± 0.12 mmol/L	815 ± 53* U/L	399 ± 22* U/L
C=C(C)[C@@H]1CC[C@]2(C(=O)O)CC[C@]3(C)[C@H](CC[C@@H]4[C@@]5(C)CC[C@H](O)C(C)(C)[C@@H]5CC[C@]43C)[C@@H]12 [BA, Betulinic acid]	–	1.245 ± 0.201 mmol/L	7.02 ± 0.63 mmol/L	1.10 ± 0.08 mmol/L	849 ± 34 U/L	422 ± 45* U/L
